Reference: patent US20150315188A1, “COMPOUNDS AND METHODS FOR TREATMENT OF HYPERTENSION” (MEDIVATION TECHNOLOGIES, INC., priority 2012, published 2015)

Assays:
Parameters in all cases: purchased Milipore (Millipore)
[1] = target: T1, Human adrenergic α2B receptor (Homo sapiens, UniProt P18089); assay: Radioligand binding, adrenergic α2B (Protocol Group B); conditions: Protocol Group B; for Percentage inhibition of ligand binding, Adrenergic α2B (10 nM) / inhibition at 0.01 µM: 10 nM compound; for Percentage inhibition of ligand binding, Adrenergic α2B (10 nM): 0.01 µM; for Percentage inhibition of ligand binding, Adrenergic α2B (30 nM) / inhibition at 0.03 µM: 30 nM compound; for Percentage inhibition of ligand binding, Adrenergic α2B (30 nM): 0.03 µM; for Percentage inhibition of ligand binding, Adrenergic α2B (0.1 μM) / inhibition at 0.1 µM: 0.1 μM compound; for inhibition at 0.01 µM: read-out: Percentage inhibition of ligand binding, Adrenergic α2B (10 nM); for inhibition at 0.03 µM: read-out: Percentage inhibition of ligand binding, Adrenergic α2B (30 nM); for inhibition at 0.1 µM: read-out: Percentage inhibition of ligand binding, Adrenergic α2B (0.1 μM)
T1 sequence (P18089 1-450): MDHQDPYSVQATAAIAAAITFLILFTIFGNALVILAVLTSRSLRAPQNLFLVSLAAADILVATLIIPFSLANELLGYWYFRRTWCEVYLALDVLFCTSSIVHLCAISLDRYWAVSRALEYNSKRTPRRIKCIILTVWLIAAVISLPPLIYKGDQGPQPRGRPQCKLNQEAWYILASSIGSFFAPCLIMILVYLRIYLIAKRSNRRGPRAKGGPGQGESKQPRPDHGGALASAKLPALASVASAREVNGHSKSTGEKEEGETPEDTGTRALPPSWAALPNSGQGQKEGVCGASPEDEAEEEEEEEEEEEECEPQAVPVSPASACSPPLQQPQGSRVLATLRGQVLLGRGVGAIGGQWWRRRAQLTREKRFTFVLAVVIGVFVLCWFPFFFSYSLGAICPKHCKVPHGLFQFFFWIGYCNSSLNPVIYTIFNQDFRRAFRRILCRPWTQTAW
Summary of the method: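 Compounds at various concentrations in 1% DMSO were tested on recombinant membranes in Tris-HCl pH 7.4 buffer containing MgCl2, CaCl2 and 0.2% BSA.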

[2] = target: T2, Human adrenergic α2A receptor (Homo sapiens, UniProt P08913); assay: Radioligand binding, adrenergic α2A (Protocol Group B); conditions: Protocol Group B; for Percentage inhibition of ligand binding, Adrenergic α2A (0.1 μM) / inhibition at 0.1 µM: 0.1 μM compound; for Percentage inhibition of ligand binding, Adrenergic α2A (0.3 μM) / inhibition at 0.3 µM: 0.3 μM compound; for inhibition at 0.1 µM: read-out: Percentage inhibition of ligand binding, Adrenergic α2A (0.1 μM); for inhibition at 0.3 µM: read-out: Percentage inhibition of ligand binding, Adrenergic α2A (0.3 μM)
T2 sequence (P08913 1-465): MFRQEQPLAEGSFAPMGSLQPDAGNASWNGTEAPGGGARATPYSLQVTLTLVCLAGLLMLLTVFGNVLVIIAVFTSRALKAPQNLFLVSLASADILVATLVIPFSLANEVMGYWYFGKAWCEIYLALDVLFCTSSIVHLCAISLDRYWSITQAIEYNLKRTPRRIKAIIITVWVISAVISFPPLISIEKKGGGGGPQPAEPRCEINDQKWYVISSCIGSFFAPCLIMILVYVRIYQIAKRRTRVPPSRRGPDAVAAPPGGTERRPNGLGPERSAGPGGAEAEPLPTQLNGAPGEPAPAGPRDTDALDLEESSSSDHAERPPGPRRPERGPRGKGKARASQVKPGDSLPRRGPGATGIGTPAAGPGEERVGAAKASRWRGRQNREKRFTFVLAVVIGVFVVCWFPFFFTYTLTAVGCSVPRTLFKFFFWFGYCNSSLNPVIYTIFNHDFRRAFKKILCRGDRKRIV
Summary of the method: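 Compounds (1% DMSO vehicle, various concentrations) competed against 2 nM [^3H]MK-912 on recombinant receptor membranes for 60 min at 25° C, Tris-HCl pH 7.4 buffer with Mg2+, Ca2+, BSA. Bound radioligand filtered and counted; 10 μM rauwolscine set nonspecific binding. Values: percent inhibition of specific binding or estimated Ki.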

[3] = target: T3, Human adrenergic α1B receptor (Homo sapiens, UniProt P35368); assay: Radioligand binding, adrenergic α1B (Protocol Group B); conditions: Protocol Group B; for Percentage inhibition of ligand binding, Adrenergic α1B (0.1 μM) / inhibition at 0.1 µM: 0.1 μM compound; for Percentage inhibition of ligand binding, Adrenergic α1B (0.3 μM) / inhibition at 0.3 µM: 0.3 μM compound; for inhibition at 0.1 µM: read-out: Percentage inhibition of ligand binding, Adrenergic α1B (0.1 μM); for inhibition at 0.3 µM: read-out: Percentage inhibition of ligand binding, Adrenergic α1B (0.3 μM)
T3 sequence (P35368 1-520): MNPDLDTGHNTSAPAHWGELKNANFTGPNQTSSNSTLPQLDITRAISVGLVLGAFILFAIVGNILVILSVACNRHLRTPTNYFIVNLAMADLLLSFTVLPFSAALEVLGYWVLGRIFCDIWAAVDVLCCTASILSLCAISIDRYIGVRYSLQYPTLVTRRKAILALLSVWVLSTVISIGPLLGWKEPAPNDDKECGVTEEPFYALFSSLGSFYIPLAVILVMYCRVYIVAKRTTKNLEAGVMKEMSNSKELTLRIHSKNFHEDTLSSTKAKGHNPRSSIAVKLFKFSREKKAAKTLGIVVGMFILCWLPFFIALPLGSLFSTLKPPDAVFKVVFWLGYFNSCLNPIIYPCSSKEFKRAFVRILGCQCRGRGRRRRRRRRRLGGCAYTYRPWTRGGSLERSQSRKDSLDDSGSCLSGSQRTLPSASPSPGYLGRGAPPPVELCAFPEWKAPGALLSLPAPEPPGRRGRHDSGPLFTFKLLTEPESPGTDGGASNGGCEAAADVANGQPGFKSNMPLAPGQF
Summary of the method: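 Values are percent inhibition of specific [3H]prazosin (0.3 nM) binding or estimated Ki, from filtration counting. Human α1B recombinant membranes, Tris-HCl pH 7.4 buffer with MgCl2 and EDTA, 60 min at 25 °C, 1% DMSO vehicle; 10 μM prazosin defined nonspecific binding.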

Row | Structure (SMILES) | Percentage inhibition of ligand binding, Adrenergic α2B (10 nM) [1] [%] | Percentage inhibition of ligand binding, Adrenergic α2B (30 nM) [1] [%] | Percentage inhibition of ligand binding, Adrenergic α2B (0.1 μM) [1] [%] | Percentage inhibition of ligand binding, Adrenergic α2A (0.1 μM) [2] [%] | Percentage inhibition of ligand binding, Adrenergic α2A (0.3 μM) [2] [%] | Percentage inhibition of ligand binding, Adrenergic α1B (0.1 μM) [3] [%] | Percentage inhibition of ligand binding, Adrenergic α1B (0.3 μM) [3] [%] | inhibition at 0.01 µM [1] [%] | inhibition at 0.03 µM [1] [%] | inhibition at 0.1 µM [2] [%] | inhibition at 0.3 µM [2] [%] | inhibition at 0.1 µM [3] [%] | inhibition at 0.3 µM [3] [%] | inhibition at 0.1 µM [1] [%] | Ki ([1]; estimated Ki, read-out: Ki α2B) [nM]
1 | OC(Cn1c2c(c3cc(F)ccc31)C1CCCN1CC2)c1ccncc1 (centres unmarked) [compound 18, 2-(10-fluoro-2,3,5,6-tetrahydro-1H-indolizino[7,8-b]indol-7 (11cH)-yl)-1-(pyridin-4-yl)ethanol] | 54 | 81 | 95 | 12 | 38 | 20 | 51 | – | – | – | – | – | – | – | –
2 | CC(O)(Cn1c2c(c3cc(F)ccc31)C1CCCN1CC2)c1cccnc1 (centres unmarked) [51a] | 79 | 93 | 97 | 16 | 39 | −6 | 19 | – | – | – | – | – | – | – | –
3 | Cc1ccc2c(c1)c1c(n2CC(C)(O)c2cccnc2)CC2CCCN2C1 (centres unmarked) [41b] | −14 | −14 | −2 | −16 | −5 | −11 | −4 | – | – | – | – | – | – | – | –
4 | CC(O)(Cn1c2c(c3cc(C(F)(F)F)ccc31)CN1CCCC1C2)c1cccnc1 (centres unmarked) [85b] | – | – | – | – | – | – | – | -7 | -5 | -14 | -17 | -12 | -3 | – | –
5 | Cc1ccc2c(c1)c1c(n2CC(O)c2cccnc2)C(F)(F)CN(C)C1 (centres unmarked) [compound 30, 2-(4,4-difluoro-2,8-dimethyl-3,4-dihydro-1H-pyrido[4,3-b]indol-5(2H)-yl)-1-(pyridin-3-yl)ethanol] | – | – | – | – | – | – | – | 13 | 8 | -18 | -5 | 0 | 17 | 12 | –
6 | Cc1cc(F)cc2c3c(n(CC(C)(O)c4cccnc4)c12)CC1CCCN1C3 (single isomer, unassigned) [76a] | 12 | 21 | 53 | −3 | 12 | −8 | 11 | – | – | – | – | – | – | – | –
7 | OC(Cn1c2c(c3cc(Cl)ccc31)C1CCCN1CC2)c1ccncc1 (single isomer, unassigned) [143a] | – | 89 | – | 44 | – | 91 | – | – | – | – | – | – | – | – | –
8 | Cc1ccc2c(c1)c1c(n2CC(C)(O)c2cccnc2)CC(CO)N(C)C1 (single isomer, unassigned) [15a] | 19 | 48 | 68 | 14 | 14 | – | – | – | – | – | – | 17 | 25 | – | –
9 | CC(O)(Cn1c2c(c3cc(Cl)cc(F)c31)C1CCCN1CC2)c1cccnc1 (single isomer, unassigned) [53a] | – | – | – | 60 | – | 12 | – | 87 | 97 | – | 74 | – | 50 | 98 | 1.7
10 | CC(O)(Cn1c2c(c3cc(Cl)cc(F)c31)CN1CCCC1C2)c1ccncc1 (single isomer, unassigned) [86b] | 14 | 17 | – | 11 | 14 | 3 | 15 | – | – | – | – | – | – | – | –
11 | Cc1ccc2c(c1)c1c(n2CC(O)c2ccc(C(=O)N(C)C)nc2)CCN(C)C1 (centres unmarked) [compound 54, 5-(2-(2,8-dimethyl-3,4-dihydro-1H-pyrido[4,3-b]indol-5(2H)-yl)-1-hydroxyethyl)-N,N-dimethylpicolinamide] | – | – | – | – | – | – | – | 15 | 43 | -8 | -3 | -5 | 8 | 66 | –
12 | OC(Cn1c2c(c3cc(F)cc(F)c31)C1CCCN1CC2)c1ccncc1 (single isomer, unassigned) [144a] | – | 73 | – | 16 | – | 28 | – | – | – | – | – | – | – | – | –
13 | Cc1ccc2c(c1)c1c(n2CC(O)c2cccnc2)CC2CCCN2C1 (single isomer, unassigned) [27a] | 6 | 10 | 33 | 3 | – | 0 | 15 | – | – | – | 20 | – | – | – | –
14 | Cc1ccc2c(c1)c1c(n2CC(O)c2ccc(C(=O)NC3CC3)nc2)CCN(C)C1 (centres unmarked) [compound 55, N-cyclopropyl-5-(2-(2,8-dimethyl-3,4-dihydro-1H-pyrido[4,3-b]indol-5(2H)-yl)-1-hydroxyethyl)picolinamide] | – | – | – | – | – | – | – | 6 | 24 | -4 | 3 | 19 | 44 | 50 | –
15 | CC(O)(Cn1c2c(c3cc(Cl)cc(F)c31)CN1CCCC1C2)c1cccnc1 (single isomer, unassigned) [63d] | −10 | 5 | – | −13 | −12 | −5 | −4 | – | – | – | – | – | – | – | –
